Test results published in the NIST ThermoML archive (doi:10.1016/j.tca.2015.06.017).

Assay: xn = mol fraction of the nth substance listed
Conditions: Liquid, Vibrating tube method

CCC(C)Cl (stereo not drawn) [2-chlorobutane] + CCCCCCC
mass density [kg/m3]
Conditions	303.15 K	313.15 K	323.15 K
100 kPa, x2 = 0.0524	847.91	836.56	825.09
100 kPa, x2 = 0.1018	835.49	824.33	813.02
100 kPa, x2 = 0.1968	813.06	802.22	791.28
100 kPa, x2 = 0.3006	790.36	779.88	769.26
100 kPa, x2 = 0.4029	769.73	759.54	749.24
100 kPa, x2 = 0.5017	751.19	741.34	731.3
100 kPa, x2 = 0.6008	733.91	724.36	714.64
100 kPa, x2 = 0.7023	717.52	708.18	698.73
100 kPa, x2 = 0.7977	703.14	694.03	684.8
100 kPa, x2 = 0.8986	688.99	680.16	671.19
100 kPa, x2 = 0.952	681.86	673.13	664.27
2000 kPa, x2 = 0.0524	850.2	839.05	827.83
2000 kPa, x2 = 0.1018	837.83	826.85	815.67
2000 kPa, x2 = 0.1968	815.38	804.68	793.94
2000 kPa, x2 = 0.3006	792.62	782.33	771.89
2000 kPa, x2 = 0.4029	771.9	761.96	751.76
2000 kPa, x2 = 0.5017	753.34	743.67	733.83
2000 kPa, x2 = 0.6008	736.05	726.67	717.08
2000 kPa, x2 = 0.7023	719.64	710.46	701.07
2000 kPa, x2 = 0.7977	705.19	696.31	687.1
2000 kPa, x2 = 0.8986	691.08	682.39	673.45
2000 kPa, x2 = 0.952	683.95	675.34	666.5
5000 kPa, x2 = 0.0524	853.75	842.87	831.91
5000 kPa, x2 = 0.1018	841.34	830.59	819.82
5000 kPa, x2 = 0.1968	818.82	808.31	797.9
5000 kPa, x2 = 0.3006	795.97	785.99	775.73
5000 kPa, x2 = 0.4029	775.25	765.53	755.62
5000 kPa, x2 = 0.5017	756.66	747.19	737.6
5000 kPa, x2 = 0.6008	739.33	730.09	720.78
5000 kPa, x2 = 0.7023	722.77	713.8	704.73
5000 kPa, x2 = 0.7977	708.3	699.58	690.71
5000 kPa, x2 = 0.8986	694.14	685.57	677.02
5000 kPa, x2 = 0.952	686.97	678.46	670.04
7000 kPa, x2 = 0.0524	856.02	845.3	834.54
7000 kPa, x2 = 0.1018	843.56	832.97	822.46
7000 kPa, x2 = 0.1968	820.99	810.78	800.49
7000 kPa, x2 = 0.3006	798.15	788.3	778.37
7000 kPa, x2 = 0.4029	777.41	767.84	758.11
7000 kPa, x2 = 0.5017	758.81	749.48	740.05
7000 kPa, x2 = 0.6008	741.44	732.35	723.19
7000 kPa, x2 = 0.7023	724.78	716.03	707.1
7000 kPa, x2 = 0.7977	710.27	701.8	693.06
7000 kPa, x2 = 0.8986	696.07	687.74	679.34
7000 kPa, x2 = 0.952	688.88	680.62	672.34
10000 kPa, x2 = 0.0524	859.35	848.77	838.27
10000 kPa, x2 = 0.1018	846.8	836.51	826.08
10000 kPa, x2 = 0.1968	824.17	814.23	804.11
10000 kPa, x2 = 0.3006	801.36	791.7	781.87
10000 kPa, x2 = 0.4029	780.55	771.16	761.62
10000 kPa, x2 = 0.5017	761.91	752.73	743.56
10000 kPa, x2 = 0.6008	744.48	735.56	726.61
10000 kPa, x2 = 0.7023	727.81	719.19	710.43
10000 kPa, x2 = 0.7977	713.22	704.84	696.28
10000 kPa, x2 = 0.8986	699	690.69	682.48
10000 kPa, x2 = 0.952	691.77	683.56	675.45
20000 kPa, x2 = 0.0524	869.52	859.69	849.8
20000 kPa, x2 = 0.1018	857	847.28	837.53
20000 kPa, x2 = 0.1968	834.1	824.81	815.4
20000 kPa, x2 = 0.3006	811.1	802.08	792.88
20000 kPa, x2 = 0.4029	790.07	781.34	772.5
20000 kPa, x2 = 0.5017	771.19	762.72	754.11
20000 kPa, x2 = 0.6008	753.6	745.36	737
20000 kPa, x2 = 0.7023	736.87	728.79	720.73
20000 kPa, x2 = 0.7977	722.07	714.29	706.35
20000 kPa, x2 = 0.8986	707.69	699.96	692.38
20000 kPa, x2 = 0.952	700.38	692.74	685.27
30000 kPa, x2 = 0.0524	878.79	869.48	860.04
30000 kPa, x2 = 0.1018	866.11	856.99	847.72
30000 kPa, x2 = 0.1968	843.05	834.35	825.47
30000 kPa, x2 = 0.3006	819.96	811.43	802.73
30000 kPa, x2 = 0.4029	798.75	790.51	782.02
30000 kPa, x2 = 0.5017	779.74	771.71	763.53
30000 kPa, x2 = 0.6008	761.98	754.16	746.23
30000 kPa, x2 = 0.7023	745.03	737.41	729.67
30000 kPa, x2 = 0.7977	730.14	722.74	715.26
30000 kPa, x2 = 0.8986	715.59	708.23	700.97
30000 kPa, x2 = 0.952	708.22	700.93	693.82
40000 kPa, x2 = 0.0524	887.22	878.27	869.34
40000 kPa, x2 = 0.1018	874.41	865.7	856.96
40000 kPa, x2 = 0.1968	851.38	842.91	834.4
40000 kPa, x2 = 0.3006	827.93	819.81	811.6
40000 kPa, x2 = 0.4029	806.62	798.72	790.72
40000 kPa, x2 = 0.5017	787.49	779.77	772.1
40000 kPa, x2 = 0.6008	769.55	762.09	754.63
40000 kPa, x2 = 0.7023	752.43	745.16	737.89
40000 kPa, x2 = 0.7977	737.42	730.38	723.24
40000 kPa, x2 = 0.8986	722.69	715.74	708.82
40000 kPa, x2 = 0.952	715.28	708.38	701.63
50000 kPa, x2 = 0.0524	894.96	886.46	877.82
50000 kPa, x2 = 0.1018	882.16	873.81	865.47
50000 kPa, x2 = 0.1968	858.96	850.85	842.71
50000 kPa, x2 = 0.3006	835.46	827.58	819.72
50000 kPa, x2 = 0.4029	813.98	806.37	798.76
50000 kPa, x2 = 0.5017	794.72	787.33	779.9
50000 kPa, x2 = 0.6008	776.69	769.48	762.28
50000 kPa, x2 = 0.7023	759.44	752.43	745.43
50000 kPa, x2 = 0.7977	744.29	737.47	730.63
50000 kPa, x2 = 0.8986	729.42	722.77	716.08
50000 kPa, x2 = 0.952	721.96	715.34	708.79
60000 kPa, x2 = 0.0524	902.31	894.03	885.83
60000 kPa, x2 = 0.1018	889.34	881.29	873.29
60000 kPa, x2 = 0.1968	866.09	858.17	850.37
60000 kPa, x2 = 0.3006	842.43	834.83	827.3
60000 kPa, x2 = 0.4029	820.82	813.47	806.2
60000 kPa, x2 = 0.5017	801.47	794.34	787.21
60000 kPa, x2 = 0.6008	783.34	776.43	769.46
60000 kPa, x2 = 0.7023	766	759.35	752.51
60000 kPa, x2 = 0.7977	750.71	744.21	737.59
60000 kPa, x2 = 0.8986	735.66	729.29	722.89
60000 kPa, x2 = 0.952	728.17	721.82	715.52
65000 kPa, x2 = 0.0524	905.77	897.67	889.59
65000 kPa, x2 = 0.1018	892.87	884.92	877.02
65000 kPa, x2 = 0.1968	869.57	861.74	854.06
65000 kPa, x2 = 0.3006	845.82	838.38	830.95
65000 kPa, x2 = 0.4029	824.21	816.9	809.85
65000 kPa, x2 = 0.5017	804.75	797.7	790.81
65000 kPa, x2 = 0.6008	786.56	779.7	772.98
65000 kPa, x2 = 0.7023	769.12	762.47	755.89
65000 kPa, x2 = 0.7977	753.9	747.31	740.95
65000 kPa, x2 = 0.8986	738.65	732.32	726.04
65000 kPa, x2 = 0.952	731.1	724.77	718.69
